This is an account of results in patent US20070276011A1, “Plasminogen Activator Inhibitor-1 Inhibitor” (priority 2003, published 2007).

Assay [1] has as its target T1, recombinant human PAI-1 (Homo sapiens, UniProt P05121). Kind of assay: PAI-1 inhibitory activity, Test Method A (tPA fluorogenic substrate, Tris buffer pH8.0, 37 C). It is filed as biochemical. The settings on record: for IC50: 50% inhibitory concentration of PAI-1 activity, according to the aforementioned method; for Inhibitory Ratio at 25 μM (%): Test Method A.
Assay [2] addresses T1, recombinant human PAI-1. Kind of assay: Inhibition of complex formation of PAI-1 and tPA (SDS-PAGE). It is filed as biochemical. The settings on record: 100 μM concentration. As for the experimental part: To a 2.5 μL solution obtained by diluting a DMSO solution of the test compound at 4-fold concentration of the test concentration with PBS(-), 5 μL of 150 nM recombinant human PAI-1 solution adjusted with a phosphate buffer (pH6.6, 0.05M Sodium Phosphate, 0.1 M NaCl, 1 mM EDTA) was added, and reacted for 5 minutes at 37° C. […] of 600 nM recombinant human one-chain tPA solution adjusted with PBS(-) was added, and further reacted for 5 minutes at 37° C. 10 μL of stop buffer (1.25 mM Tris-HCl pH6.8, 4% SDS, 0.01% BPB, 14% Glycerol) was added, heated for 30 seconds at 100° C., and then the total amount of 20 μL was applied to 10% SDS-PAGE gel electrophoresis. When the test compound was not added as being a control, a band of PAI-1-tPA complex was observed.

T1 sequence (P05121 24-402): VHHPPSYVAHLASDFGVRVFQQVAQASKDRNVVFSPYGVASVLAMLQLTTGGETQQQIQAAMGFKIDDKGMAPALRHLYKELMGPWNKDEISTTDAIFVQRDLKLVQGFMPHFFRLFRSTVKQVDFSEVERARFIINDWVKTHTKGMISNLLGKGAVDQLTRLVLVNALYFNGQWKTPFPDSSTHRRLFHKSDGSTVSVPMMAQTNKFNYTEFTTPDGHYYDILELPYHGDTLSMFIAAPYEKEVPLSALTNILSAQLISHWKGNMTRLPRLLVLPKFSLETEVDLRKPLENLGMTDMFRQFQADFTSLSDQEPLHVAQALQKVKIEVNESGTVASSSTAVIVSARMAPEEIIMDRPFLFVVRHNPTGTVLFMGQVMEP

`CC(C)C1=NN(c2ccc(Cl)c(Cl)c2)C(=O)C1=Cc1cc(O)c(O)cc1O` [compound 141, 4-(2,4,5-trihydroxybenzylidene)-1-(3,4-dichlorophenyl)-3-isopropyl-2-pyrazolin-5-one]: in assay [1], the IC50 (usually the concentration needed to halve the response being measured) worked out at 240 nM. For the same compound, the “Inhibitory Ratio at 25 μM (%)” value in assay [1] (test compound 25 μM) is on record as more than 99%. The “inhibition of the complex formation of PAI-1 and tPA observed with SDS-PAGE” value (shortened to “inhibition”) in assay [2] is given as “completely inhibited”.
On to `O=C(Nc1ccc(CN2C(=O)SC(=Cc3cccc(O)c3O)C2=O)cc1)c1ccc(Oc2ccccc2)cc1` [compound 316, 5-(2,3-Dihydroxybenzylidene)-3-[4-(4-phenoxybenzoylamino)benzyl]-thiazolidine-2,4-dione], for which the “Inhibitory Ratio at 25 μM (%)” value in assay [1] (25 μM test compound) is on record as more than 99%. In addition, the IC50 in assay [1] worked out at 460 nM. Also, in assay [2], the “inhibition” value was “completely inhibited”.
In the same order, the values of `O=C1SC(=Cc2cc(O)c(O)c([N+](=O)[O-])c2)C(=O)N1Cc1ccc(Cl)c(Cl)c1` [compound 347] are more than 99%, 450 nM and “completely inhibited”.
With `CC(C)C1=NN(c2cc(Cl)cc(Cl)c2)C(=O)C1=Cc1cc(O)c(O)cc1O` [compound 504], in assay [1] (25 μM test compound), the “Inhibitory Ratio at 25 μM (%)” value worked out at 89%. In addition, the IC50 in assay [1] was 290 nM. In assay [2], the “inhibition” value is given as “completely inhibited”.
Consider `O=C(Nc1ccc(O)c(O)c1)c1cc(C=C2SC(=O)N(Cc3cc(C(F)(F)F)cc(C(F)(F)F)c3)C2=O)ccc1O` [compound 384], for which the “Inhibitory Ratio at 25 μM (%)” value in assay [1] (25 μM test compound) came to 91%. Besides, the “inhibition” value in assay [2] is “completely inhibited”.
In the case of `O=C(Cc1cccc(Oc2ccccc2)c1)Nc1cccc(CN2C(=O)SC(=Cc3cccc(O)c3O)C2=O)c1` [compound 320, 5-(2,3-Dihydroxybenzylidene)-3-{3-[(3-phenoxyphenyl)acetylamino]-benzyl}thiazolidine-2,4-dione], the “Inhibitory Ratio at 25 μM (%)” value in assay [1] (25 μM test compound) was more than 99%. Besides, the IC50 in assay [1] was 340 nM. In addition, in assay [2], the “inhibition” value is “completely inhibited”.
In the same order, the values of `O=C(Nc1cc(Cl)ccc1Cl)c1cc(C=C2SC(=O)N(Cc3ccc(Cl)c(Cl)c3)C2=O)ccc1O` [compound 441] are 71%, 480 nM and “completely inhibited”.
On to `O=C(Cc1cc(C(F)(F)F)cc(C(F)(F)F)c1)Nc1ccc(CN2C(=O)SC(=Cc3cccc(O)c3O)C2=O)cc1` [compound 317, 5-(2,3-Dihydroxybenzylidene)-3-{4-[3,5-Bis(trifluoromethyl)-phenylacetylamino]benzyl}thiazolidine-2,4-dione], for which the “Inhibitory Ratio at 25 μM (%)” value in assay [1] (25 μM test compound) is more than 99%. Further, the IC50 in assay [1] was 420 nM. Moreover, the “inhibition” value in assay [2] was “completely inhibited”.
For `O=C(Nc1cccc(O)c1O)c1cc(C=C2SC(=O)N(Cc3ccc(Cl)c(Cl)c3)C2=O)ccc1O` [compound 436] the same measures were more than 99%, 210 nM and “completely inhibited”.
On to `O=C1SC(=Cc2cccc(O)c2O)C(=O)N1Cc1cccc(Cl)c1Cl` [compound 18, 5-(2,3-Dihydroxybenzylidene)-3-(2,3-dichlorobenzyl)thiazolidine-2,4-dione], for which the IC50 in assay [1] was 380 nM. Further, the “Inhibitory Ratio at 25 μM (%)” value in assay [1] (test compound 25 μM) is reported as more than 99%. In assay [2], the “inhibition” value is reported as “completely inhibited”.
On to `Cc1cc(C=C2SC(=O)N(Cc3ccc(Cl)c(Cl)c3)C2=O)cc(C(=O)Nc2ccc(O)c(O)c2)c1O` [compound 401, 5-[3-Methyl-4-hydroxy-5-(3,4-dihydroxyphenylcarbamoyl)-benzylidene]-3-(3,4-dichlorobenzyl)thiazolidine-2,4-dione], for which the “Inhibitory Ratio at 25 μM (%)” value in assay [1] (25 μM test compound) worked out at 96%. The “inhibition” value in assay [2] was “completely inhibited”.
With `O=C1C(=Cc2ccc(O)c(O)c2)SC(=S)N1Cc1ccc(Cl)c(Cl)c1` [compound 81, 5-(3,4-Dihydroxybenzylidene)-3-(3,4-dichlorobenzyl)rhodanine], in assay [1], the IC50 turned out to be 230 nM. Further, the “Inhibitory Ratio at 25 μM (%)” value in assay [1] (test compound 25 μM) is on record as more than 99%. Also, in assay [2], the “inhibition” value is “completely inhibited”.
In the same order, the values of `O=C1SC(=Cc2cccc(O)c2O)C(=O)N1Cc1ccc(Br)cc1` [compound 36, 5-(2,3-Dihydroxybenzylidene)-3-(4-bromobenzyl)thiazolidine-2,4-dione] are 450 nM, more than 99% and “completely inhibited”.
As to `CCOC1=NN(c2ccc([N+](=O)[O-])cc2)C(=O)C1=Cc1cc(O)c(O)cc1O` [compound 156], the IC50 in assay [1] was 300 nM. The “Inhibitory Ratio at 25 μM (%)” value in assay [1] (test compound 25 μM) worked out at 70%. Further, in assay [2], the “inhibition” value is given as “completely inhibited”.
In the same order, the values of `O=C1SC(=Cc2cccc(O)c2O)C(=O)N1Cc1ccc(C(F)(F)F)cc1` [compound 43, 5-(2,3-Dihydroxybenzylidene)-3-[4-(trifluoromethyl)benzyl]thiazolidine-2,4-dione] are 360 nM, more than 99% and “completely inhibited”.
Consider `COc1cc(C=C2SC(=O)N(Cc3ccc(Cl)c(Cl)c3)C2=O)cc(C(=O)Nc2ccc(O)c(O)c2)c1O` [compound 349, 5-[3-Methoxy-4-hydroxy-5-(3,4-dihydroxyphenylcarbamoyl)-benzylidene]-3-(3,4-dichlorobenzyl)thiazolidine-2,4-dione], for which the “Inhibitory Ratio at 25 μM (%)” value in assay [1] (25 μM test compound) was determined as 87%. The IC50 in assay [1] worked out at 570 nM. Also, in assay [2], the “inhibition” value is “completely inhibited”.
In the case of `O=C(Nc1cccc(C=C2SC(=O)N(Cc3ccc(Cl)c(Cl)c3)C2=O)c1)c1ccc(O)c(O)c1` [compound 370], the “Inhibitory Ratio at 25 μM (%)” value in assay [1] (25 μM test compound) is listed as more than 99%.
Consider `O=C1SC(=Cc2cccc(O)c2O)C(=O)N1Cc1ccc(Cl)c(Cl)c1` [compound 8, 5-(2,3-Dihydroxybenzylidene)-3-(3,4-dichlorobenzyl)thiazolidine-2,4-dione], for which the “Inhibitory Ratio at 25 μM (%)” value in assay [1] (test compound 25 μM) was more than 99%.
Consider `COc1ccc(Oc2ccc(C(F)(F)F)cc2NC(=O)c2cc(C=C3SC(=O)N(Cc4cccc(Oc5ccccc5)c4)C3=O)ccc2O)cc1` [compound 421, 5-(4-hydroxy-3-{[2-(4-methoxyphenoxy)-5-(trifluoromethyl)-phenyl]carbamoyl}benzylidene)-3-(3-phenoxybenzyl)thiazolidine-2,4-dione], for which the “Inhibitory Ratio at 25 μM (%)” value in assay [1] (25 μM test compound) is listed as more than 99%.
Take `O=C(O)c1cccc(N2N=C(c3ccccc3)C(=Cc3ccc(Br)o3)C2=O)c1` [compound 215]: in assay [1] (test compound 25 μM), the “Inhibitory Ratio at 25 μM (%)” value came to 77%.
For `CC(C)C1=NN(c2ccc(Cl)c(Cl)c2)C(=O)C1=Cc1cc(O)ccc1O` [compound 519], the “Inhibitory Ratio at 25 μM (%)” value in assay [1] (25 μM test compound) worked out at 80%.
Same read-out and setting: the same measure for `CC(C)C1=NN(c2ccc(C=Cc3ccccn3)cc2)C(=O)C1=Cc1cc(C=Cc2ccccc2)ccc1O` [compound 544, 4-(2-Hydroxy-5-styrylbenzylidene)-1-{4-[2-(pyridin-2-yl)vinyl]phenyl}-3-isopropyl-2-pyrazolin-5-one]: 41%; for `O=C(Cc1cccc(Oc2ccccc2)c1)Nc1cccc(CN2C(=O)SC(=Cc3ccc(O)c(O)c3)C2=O)c1` [compound 321]: more than 99%; for `CCOC(=O)CCCC1=NN(c2ccc(Cl)cc2)C(=O)C1=Cc1cc(Br)ccc1O` [compound 516, 4-(2-Hydroxy-5-bromobenzylidene)-1-(4-chlorophenyl)-3-[3-(ethoxycarbonyl)propyl]-2-pyrazolin-5-one]: 86%.
On the same count and under the same terms, next, `O=C1C(=Cc2ccc(O)cc2)C(c2ccc(O)cc2)=NN1c1cc(Cl)cc(Cl)c1` [compound 511]: more than 99%.
With `O=C1C(=Cc2ccc(O)c(O)c2)C(C(F)(F)F)=NN1c1cccc([N+](=O)[O-])c1` [compound 137], the “Inhibitory Ratio at 25 μM (%)” value in assay [1] (test compound 25 μM) is on record as more than 99%.
On the same count and under the same terms, next, `O=C1SC(=Cc2cc(Br)cc(Br)c2O)C(=O)N1Cc1cc(C(F)(F)F)cc(C(F)(F)F)c1` [compound 2, 5-(3,5-Dibromo-2-hydroxybenzylidene)-3-[3,5-bis(trifluoromethyl)benzyl]-thiazolidine-2,4-dione]: 52%; `O=C1SC(=Cc2cccc(O)c2O)C(=O)N1Cc1cccc(Cl)c1` [compound 30, 5-(2,3-Dihydroxybenzylidene)-3-(3-chlorobenzyl)thiazolidine-2,4-dione]: more than 99%.
For the compound `O=C(O)c1ccc(CN2C(=O)SC(=Cc3ccc(O)c(C(=O)Nc4ccc(Cl)c(Cl)c4)c3)C2=O)cc1` [compound 418], the “Inhibitory Ratio at 25 μM (%)” value in assay [1] (25 μM test compound) turned out to be 80%.
`COc1cc(C=C2C(=O)N(c3cccc(C(=O)O)c3)N=C2C)cc(Br)c1OCC(=O)NCc1ccccc1` [compound 174]: the “Inhibitory Ratio at 25 μM (%)” value in assay [1] (test compound 25 μM) is reported as 62%.
Consider `O=C1SC(=Cc2cc(Br)cc(Br)c2O)C(=O)N1c1ccccc1` [compound 1], for which the “Inhibitory Ratio at 25 μM (%)” value in assay [1] (test compound 25 μM) was more than 99%.
Regarding `O=C(Nc1cccc(OC(F)(F)F)c1)c1cc(C=C2SC(=O)N(Cc3ccc(Cl)c(Cl)c3)C2=O)ccc1O` [compound 414], in assay [1] (25 μM test compound), the “Inhibitory Ratio at 25 μM (%)” value was determined as 91%.
Regarding `COCC1=NN(c2cc(Cl)cc(Cl)c2)C(=O)C1=Cc1cc(C=Cc2ccccc2)ccc1O` [compound 524], the “Inhibitory Ratio at 25 μM (%)” value in assay [1] (25 μM test compound) was more than 99%.
